Measured values from patent publication US6482841B1, “Pyridyl compounds and pharmaceutical compositions containing them” (Cermol S.A., priority 1997, dated 2002).

Assays:
[1] = system: isolated guinea-pig ventricular myocytes; assay: Protection of isolated ventricular myocytes from hypercontracture obtained by incubation under N2 atmosphere; assay type: cell-based; details: 30 nM, with reference to vehicle-treated cells
Method: (§1) Isolated guinea-pig ventricular myocytes were obtained following the method described by Powell et al. (J. Physiol., 1980, 102: 131) as modified by Levi et al. (J. Physiol., 1990, 425:9P). Cell hypercontracture and death was obtained either by incubation under N2 atmosphere or by incubation with veratridine which induced important changes in the ionic homeostase of cardiomyocytes (Hiroko Hashizume et al., European Journal of Pharmacology, […], 271: 1-8). Results expressed as percentage of cells protected from hypercontracture i.e. maintaining its rod-shaped morphology with reference to vehicle-treated cells are given in the tables I and II hereafter.

[2] = system: isolated guinea-pig ventricular myocytes; assay: Protection of isolated ventricular myocytes from hypercontracture obtained by incubation with veratridine; assay type: cell-based; details: 1 μM, with reference to vehicle-treated cells
Method: as §1

anaesthetised rats = assay: In vivo cardioprotective effect: coronary occlusion and reperfusion in anaesthetised rats; parameters: species or system rat; details: 2 × 20 mg/kg orally (one day and one hour before the experiment)
From the text: Cardiac death and arrhythmias were induced by the coronary occlusion and reperfusion method in anaesthetised rats according to the method of Seyle et al. (Angiology, 1960, 11, 398-407) modified by Krzeminski T. (“proceedings of 7th Freiburg Focus of Biomeasurement”, Strasbourg, 16-19 September 1991) Cardiovascular and Respiratory in vivo Studies, Biomesstechnik, Verlag March GmbH, Germany) and according to the LAMBETH conventions (Walker M. J. A. et al., Cardiovasc Re., […], 22, 447-455). The products have been administered orally (one day and one hour before the experiment). They are given in percentage of protection against the mortality and the arrhythmias (ventricular fibrillations).

[3] = system: guinea-pig ventricular cardiomyocytes action potential; assay: Action potential of ventricular cardiomyocytes in the presence of veratridine (patch clamp); assay type: cell-based
Method: (§2) In order to confirm the cardioprotection, the activity of one of the most interesting compound (example 31 according to the invention) was tested on guinea-pig ventricular cardiomyocytes action potential (AP) in the presence of veratridine or in anoxic condition. The action potential (AP) time courses of guinea-pig ventricular cardiomyocytes treated with veratridine or made anoxic by incubation under N2 atmosphere were measured (patch clamp technique) in absence and presence of the compound of example 31 according to the invention. […] In anoxic conditions, there is a shortening of cardiomyocyte action potential duration related mainly with an activation of K+-ATP dependent current.

[4] = system: guinea-pig ventricular cardiomyocytes action potential; assay: Action potential of ventricular cardiomyocytes in anoxic condition under N2 atmosphere (patch clamp); assay type: cell-based; details: 100-300 nM
Method: as §2

melting point [°C]	Structure (SMILES)	% Protection (cells protected from hypercontracture) [1] [%]	% Protection (cells protected from hypercontracture) [2] [%]	% PROTECTION AGAINST DEATH (anaesthetised rats) [%]	% PROTECTION AGAINST VENTRICULAR FIBRILLATIONS (anaesthetised rats) [%]	Prolongation of cardiomyocyte action potential duration induced by veratridine ([3]; 100-300 nM, veratridine)	Influence on the normal action potential ([3]; normal action potential)	Shortening of cardiomyocyte action potential duration in anoxic conditions (K+-ATP dependent current) [4]
75 to 77	Cc1nc(C)c(C(=O)OCC2CCCO2)c(-c2cccc([N+](=O)[O-])c2)c1C(=O)OCC1CCCO1.Cl (centres unmarked)	–	–	–	–	–	–	–
196 to 198	COC(=O)c1c(C)nc(C)c(C(=O)OCC2CCCO2)c1-c1cccc(NC(C)=O)c1.Cl (centres unmarked)	–	–	–	–	–	–	–
95 to 97	COC(=O)c1c(C)nc(C)c(C(=O)OCC2CCCO2)c1-c1cccc(O)c1.Cl (centres unmarked)	–	–	–	–	–	–	–
66 to 68	COC(=O)c1c(C)nc(C)c(C(=O)OCC2CCCO2)c1-c1cccc(F)c1 (centres unmarked) [Example 3, 2,6-Dimethyl-4-(3-fluorophenyl) pyridine-3,5-dicarboxylic acid 3-methyl ester 5-(tetrahydrofuran-2-ylmethyl) ester]	–	–	–	–	–	–	–
–	COC(=O)c1c(C)nc(C)c(C(=O)OCC2CCCO2)c1-c1ccccc1[N+](=O)[O-] (centres unmarked) [Example 12, 2,6-Dimethyl-4-(2-nitrophenyl) pyridine-3,5-dicarboxylic acid 3-methyl ester 5-(tetrahydrofuran-2-ylmethyl) ester]	80	57	100	100	–	–	–
132 to 134	COC(=O)c1c(C)nc(C)c(C(=O)OCC2CCC(=O)O2)c1-c1ccccc1[N+](=O)[O-] (centres unmarked) [Example 15, 2,6-Dimethyl-4-(2-nitrophenyl) pyridine-3,5-dicarboxylic acid 3-methyl ester 5-(5-oxotetrahydrofuran-2-ylmethyl)ester]	–	–	–	–	–	–	–
–	COCCOC(=O)c1c(C)nc(C)c(C(=O)OC(C)C)c1-c1cccc([N+](=O)[O-])c1 [Example 22, 2,6-Dimethyl-4-(3-nitrophenyl)-pyridine-3,5-dicarboxylic acid 3-isopropyl ester 5-(2-methoxyethyl) ester]	63	37.5	100	50	–	–	–
–	COC(=O)c1c(C)nc(C)c(C(=O)OCC(C)C)c1-c1ccccc1[N+](=O)[O-] [Example 23, 2,6-Dimethyl-4-(2-nitrophenyl)-pyridine-3,5-dicarboxylic acid 3-methyl ester 5-isobutyl ester]	50	41.3	100	75	–	–	–
–	CCOC(=O)c1c(C)nc(C)c(C(=O)OC)c1-c1cccc([N+](=O)[O-])c1 [Example 24, 2,6-Dimethyl-4-(3-nitrophenyl)pyridine-3,5-dicarboxylic acid 3-ethyl 5-methyl ester]	60	37.5	100	37.5	–	–	–
–	COC(=O)c1c(C)nc(C)c(C(=O)OC)c1-c1ccccc1[N+](=O)[O-] [Example 25, 2,6-Dimethyl-4-(2-nitrophenyl) pyridine-3,5-dicarboxylic acid dimethyl ester]	50	34	100	50	–	–	–
–	COC(=O)c1c(C)nc(C)c(C(=O)O)c1-c1ccccc1[N+](=O)[O-] [Example 31, 2,6-Dimethyl-4-(2-nitrophenyl) pyridine-3,5-dicarboxylic acid 3-methyl ester]	58	64	85.7	73.4	prevents	does not influence significantly	inhibited dose-dependently and strongly
